The test system of series [1] is rat arginase I. The following applies: ref [26], cited from earlier work; for diminished catalytic activity based on kcat/KM relative to L-arginine / increased KM value relative to L-arginine: alternative substrate.
Series [2] has as its target T1, D183N human arginase I (Homo sapiens, UniProt P05089, D183N).
T1 sequence (P05089 1-322 D183N): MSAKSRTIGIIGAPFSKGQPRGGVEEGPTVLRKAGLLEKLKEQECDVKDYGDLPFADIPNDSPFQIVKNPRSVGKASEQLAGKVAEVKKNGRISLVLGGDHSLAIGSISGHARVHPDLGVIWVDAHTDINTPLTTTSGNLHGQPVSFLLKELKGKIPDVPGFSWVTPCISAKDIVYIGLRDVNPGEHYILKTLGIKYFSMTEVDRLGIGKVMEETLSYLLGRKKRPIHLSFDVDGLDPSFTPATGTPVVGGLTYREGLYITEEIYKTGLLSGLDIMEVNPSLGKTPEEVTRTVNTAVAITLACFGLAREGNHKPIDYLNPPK
Nature of the series: Isothermal titration calorimetry, D183N human arginase I. The format is binding. For orientation: ITC needs no label: the signal is the heat of the interaction.

For series [3], the target named is T2, D183A human arginase I (Homo sapiens, UniProt P05089, D183A).
T2 sequence (P05089 1-322 D183A): T1 sequence (P05089 1-322 D183N) with N183A
The series can be described thus: Isothermal titration calorimetry, D183A human arginase I. The class given is binding.

Series [4] deals with wild-type human arginase I. The settings on record: isothermal titration calorimetry; ref [30] and [48]; cited from earlier work.
Series [5] deals with T3, T135A rat arginase I (Rattus norvegicus, UniProt P07824, T135A).
T3 sequence (P07824 1-323 T135A): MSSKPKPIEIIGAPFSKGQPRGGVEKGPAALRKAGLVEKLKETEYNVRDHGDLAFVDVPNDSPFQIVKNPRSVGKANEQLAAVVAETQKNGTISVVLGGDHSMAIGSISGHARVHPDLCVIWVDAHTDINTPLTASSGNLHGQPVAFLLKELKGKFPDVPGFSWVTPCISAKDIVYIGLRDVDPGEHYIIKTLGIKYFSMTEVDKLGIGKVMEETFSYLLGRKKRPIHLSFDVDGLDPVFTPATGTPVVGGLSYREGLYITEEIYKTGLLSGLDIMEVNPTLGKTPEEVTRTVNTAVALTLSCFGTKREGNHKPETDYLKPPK
Nature of the series: 14C-urea radioactive arginase assay, T135A rat arginase I. The class given is biochemical.

The target in series [6] is T4, wild-type rat arginase I (Rattus norvegicus, UniProt P07824).
T4 sequence (P07824 1-323): T3 sequence (P07824 1-323 T135A) with A135T
The following applies: ref [14], cited from earlier work.

Series [7] has as its target T5, T135S rat arginase I (Rattus norvegicus, UniProt P07824, T135S).
T5 sequence (P07824 1-323 T135S): T3 sequence (P07824 1-323 T135A) with A135S
The format is biochemical.

In series [8] the target is T6, N130A rat arginase I (Rattus norvegicus, UniProt P07824, N130A).
T6 sequence (P07824 1-323 N130A): T3 sequence (P07824 1-323 T135A) with N130A, A135T
The series can be described thus: 14C-urea radioactive arginase assay, N130A rat arginase I. The class given is biochemical.

Series [9] relates to rat arginase I. The settings on record: deletion of the carboxylate group of ABH; ref [28]; cited from earlier work.
Series [10] deals with wild-type human arginase I. The following applies: substrate L-arginine; ref [30] and [48]; cited from earlier work.
Series [11] relates to proclavaminic acid amidinohydrolase. The following applies: ref [54]; cited from earlier work.
Series [12] deals with T2, D183A human arginase I. The settings on record: substrate L-arginine; pH 9.0, room temperature.
The target in series [13] is T1, D183N human arginase I. The series can be described thus: 14C-urea radioactive arginase assay, D183N human arginase I. The format is biochemical. The following applies: substrate L-arginine; pH 9.0, room temperature.
Substrate in series [14]: N=C(N)NCCC[C@H](N)C(=O)O
Nature of the series: 14C-urea radioactive arginase assay, D183A rat arginase I. The format is biochemical. The settings on record: other: substrate L-arginine, pH 9.0, room temperature.

Substrate in series [15]: N=C(N)NCCC[C@H](N)C(=O)O
The series can be described thus: 14C-urea radioactive arginase assay, N130Y rat arginase I. The format is biochemical. The following applies: other: substrate L-arginine, pH 9.0, room temperature.

Substrate in series [16]: N=C(N)NCCC[C@H](N)C(=O)O
Nature of the series: 14C-urea radioactive arginase assay, N130A rat arginase I. The class given is biochemical. The settings on record: other: substrate L-arginine, pH 9.0, room temperature.

Substrate in series [17]: N=C(N)NCCC[C@H](N)C(=O)O
Nature of the series: 14C-urea radioactive arginase assay, T135A rat arginase I. The class given is biochemical. The following applies: other: substrate L-arginine, pH 9.0, room temperature.

Substrate in series [18]: N=C(N)NCCC[C@H](N)C(=O)O
The format is biochemical, rat. The following applies: other: substrate L-arginine, pH 9.0, room temperature.

Substrate in series [19]: N=C(N)NCCC[C@H](N)C(=O)O
The series can be described thus: 14C-urea radioactive arginase assay, N130F rat arginase I. The class given is biochemical. The settings on record: other: substrate L-arginine, pH 9.0, room temperature.

Setting [20] is: progress curves in the presence of 30 µM BEC linear with time.

Residue numbers refer to the chain shown, from its start. In names and notes the source's numbering stands. Several values for one entry are separate records, joined by “and”; a condition that tells them apart may be missing. Equal values may be shown once. Read-outs that look alike come from different tables or passages of the source.

Usually Kd stands for the free concentration of one partner at which half of the binding sites on the other are occupied at equilibrium, for simple one-to-one binding. Broadly, the Ki is a dissociation constant, usually derived from enzyme kinetics or from competition with a known ligand. Usually koff stands for the first-order rate constant of dissociation. By kon is commonly meant the second-order rate constant of association. Low values mean slower complex formation, high ones faster complex formation. One may read the Km as the substrate concentration at which the rate is half of its maximum. One may read the kcat as the number of substrate molecules converted per active site and unit of time at saturation. For orientation: kcat/Km means the turnover number divided by the Michaelis constant.

For `NC(N)=NCCC[C@H](O)C(=O)O` [L-argininic acid], in series [1], the “diminished catalytic activity based on kcat/KM relative to L-arginine” value is listed as 3,200 fold and the “increased KM value relative to L-arginine” value is given as 9 fold.

As for `NC(N)=NCCC[C@@H](N)C(=O)O` [D-arginine], the substrate activity entry in series [1] was “not a substrate”.

`N[C@@H](CCCCB(O)O)C(=O)O` [ABH, 2(S)-amino-6-boronohexanoic acid]: the Kd is 147 nM in series [2], 7000 nM in series [3] and 5 nM in [4]. Also, the “inhibitor binding affinity weakened relative to wild-type” value in series [2] (D183N vs wild-type human arginase I, calorimetric Kd) was 29 fold; in series [3] (D183A vs wild-type human arginase I, calorimetric Kd) it was ~ 1400 fold and 1400 fold.

Consider `NCCCCN=C(N)N` [agmatine], for which, in [1], the “diminished catalytic activity based on kcat/KM relative to L-arginine” value is reported as 54,000 fold and the “increased KM value relative to L-arginine” value was 11 fold.

For `N[C@@H](CSCCB(O)O)C(=O)O` [BEC, S-(2-boronoethyl)-L-cysteine], the Ki in series [5] is 4500 nM; in series [6] (slow-binding kinetics observed, Ki = koff/kon) it was 400 nM; in series [7] it was 125 nM; in series [8] it was 13000 nM. Besides, the inhibitor binding behaviour result in series [5] (setting [20]) is “does not exhibit slow-binding behavior”; in [6], “slow-binding inhibitor”; in series [7] (non-linear progress curves in the presence of BEC), “slow-binding behavior”; in [8] (setting [20]), “no longer a slow-binding inhibitor”. This molecule gave a koff in [7] of 0.00155 s⁻¹. The molecule also had a kon in series [7] of 12400 M⁻¹ s⁻¹. For the same molecule, the “diminished enzyme-inhibitor affinity relative to wild-type” value in series [8] (N130A vs wild-type rat arginase I) is reported as ~ 30 fold.

As for `NCCCCCB(O)O` [descarboxy-ABH], in [9], the “loss of inhibitory activity relative to ABH” value is 1800 fold.

In the case of `N=C(N)NCCC[C@H](N)C(=O)O` [L-arginine], the values for the Km in [10] and in [13] were 1.5 mM and 40 mM, respectively. Moreover, the kcat was 190 s⁻¹ in series [10], 68 s⁻¹ in series [12] and 167 s⁻¹ in series [13]. For the same molecule, in [11], the substrate acceptance entry was “does not accept L-arginine as a substrate”.

B1: D183A rat arginase I (Rattus norvegicus; D183A) (protein)
chain: T3 sequence (P07824 1-323 T135A) with A135T, D183A
Take B1: in series [14], the Km worked out at 13.9 mM, the kcat was 14.7 s⁻¹ and the kcat/Km was determined as 1100 M⁻¹ s⁻¹.

B2: N130Y rat arginase I (Rattus norvegicus; N130Y) (protein)
chain: T3 sequence (P07824 1-323 T135A) with N130Y, A135T
B2: in series [15], the Km is recorded as 21.4 mM, the kcat was 17 s⁻¹ and the kcat/Km was 790 M⁻¹ s⁻¹.

B3: N130A rat arginase I (Rattus norvegicus; N130A) (protein)
chain: T3 sequence (P07824 1-323 T135A) with N130A, A135T
Take B3: in series [16], the Km is recorded as 50 mM, the kcat stood at 220 s⁻¹ and the kcat/Km was determined as 4400 M⁻¹ s⁻¹.

B4: T135A rat arginase I (Rattus norvegicus; T135A) (protein)
chain: T3 sequence (P07824 1-323 T135A)
B4: in [17], the Km is 13 mM, the kcat was determined as 260 s⁻¹ and the kcat/Km worked out at 20000 M⁻¹ s⁻¹.

B5: T135S rat arginase I (Rattus norvegicus; T135S) (protein)
chain: T3 sequence (P07824 1-323 T135A) with A135S
Take B5: in series [18], the Km is listed as 2.5 mM, the kcat was found to be 350 s⁻¹ and the kcat/Km came to 140000 M⁻¹ s⁻¹.

B6: N130F rat arginase I (Rattus norvegicus; N130F) (protein)
chain: T3 sequence (P07824 1-323 T135A) with N130F, A135T
In the case of B6, in [19], the Km is on record as 19.3 mM, the turnover number (kcat) came out at 4.8 s⁻¹ and the kcat/Km came to 250 M⁻¹ s⁻¹.

(Values after paper PMC2665027 (Biochemistry, 2009).)
